Assay: Maximum solubility of CoQ10 in coconut oil
Assay type: physicochemical
Conditions: in neobee (coconut oil)

`COC1=C(OC)C(=O)C(C/C=C(\C)CC/C=C(\C)CC/C=C(\C)CC/C=C(\C)CC/C=C(\C)CC/C=C(\C)CC/C=C(\C)CC/C=C(\C)CC/C=C(\C)CCC=C(C)C)=C(C)C1=O` [Emulsion Q10, 2-[(2E,6E,10E,14E,18E,22E,26E,30E,34E)-3,7,11,15,19,23,27,31,35,39-Decamethyltetraconta-2,6,10,14,18,22,26,30,34,38-decaenyl]-5,6-dimethoxy-3-methylcyclohexa-2,5-diene-1,4-dione] gave a maximum solubility of 6%.

Reference: US11944704B2, “Coenzyme Q10 aerosol” (UNM Rainforest Innovations, priority 2015, dated 2024)
